Assay results: ChEMBL document CHEMBL3885881, “DrugMatrix”

Organism: Rattus norvegicus
Test: DrugMatrix - Regimen: Daily Repeat
Format: toxicity, organism-based, Sprague-Dawley
Design: regimen Daily Repeat, gender Male, age 6-8 weeks
Conditions: in vivo, po, route oral GAVAGE, vehicle 100 % SALINE; for TOTAL BILIRUBIN / URIC ACID / ALANINE AMINOTRANSFERASE / ALBUMIN / ALKALINE PHOSPHATASE / ASPARTATE AMINOTRANSFERASE / BLOOD UREA NITROGEN / CARBON DIOXIDE / CHLORIDE / CHOLESTEROL / CREATINE PHOSPHOKINASE / CREATININE / GLUCOSE / LIPASE / PHOSPHORUS / POTASSIUM / SODIUM / TOTAL PROTEIN: tissue Plasma; for ABSOLUTE BASOPHIL / ABSOLUTE EOSINOPHIL / ABSOLUTE LYMPHOCYTE / ABSOLUTE MONOCYTE / BASOPHIL / EOSINOPHIL / ERYTHROCYTE COUNT / HEMATOCRIT / HEMOGLOBIN / LEUKOCYTE COUNT / LYMPHOCYTE / MEAN CORPUSCULAR HEMOGLOBIN / MEAN CORPUSCULAR HEMOGLOBIN CONCENTRATION / MEAN CORPUSCULAR VOLUME / MONOCYTE / NEUTROPHIL / PLATELET COUNT: tissue Blood
[1] = 0 mg/kg, 120 h, dose level Control, time 5 day
[2] = 0 mg/kg, […], dose level Control, time 14 day
[3] = 2 mg/kg, 72 h, dose level High, time 3 day
[4] = 2 mg/kg, 120 h, dose level High, time 5 day
[5] = 2 mg/kg, […], dose level High, time 14 day

COc1cccc2c1C(=O)c1c(O)c3c(c(O)c1C2=O)C[C@@](O)(C(C)=O)C[C@@H]3O[C@H]1C[C@H](N)[C@H](O)[C@H](C)O1 [DAUNORUBICIN]
TOTAL BILIRUBIN [1]: 0.37 mg/dL
URIC ACID [1]: 0.97 mg/dL
ABSOLUTE BASOPHIL [2]: 93.3 cells/µL
ABSOLUTE EOSINOPHIL [2]: 80 cells/µL
ABSOLUTE LYMPHOCYTE [2]: 6890 cells/µL
ABSOLUTE MONOCYTE [2]: 170 cells/µL
BASOPHIL [2]: 1%
EOSINOPHIL [2]: 0.83%
ERYTHROCYTE COUNT [2]: 7.03 x10E6/uL
HEMATOCRIT [2]: 43.4%
HEMOGLOBIN [2]: 14.83 G/DL
LEUKOCYTE COUNT [2]: 8.94 x10E3/uL
LYMPHOCYTE [2]: 77.93%
MEAN CORPUSCULAR HEMOGLOBIN [2]: 21.1 pg
MEAN CORPUSCULAR HEMOGLOBIN CONCENTRATION [2]: 34.17 G/DL
MEAN CORPUSCULAR VOLUME [2]: 61.77 fL
MONOCYTE [2]: 1.33%
NEUTROPHIL [2]: 18%
PLATELET COUNT [2]: 1097.33 x10E3/uL
ALANINE AMINOTRANSFERASE [2]: 32 u/L
ALBUMIN [2]: 3.83 G/DL
ALKALINE PHOSPHATASE [2]: 334.67 u/L
ASPARTATE AMINOTRANSFERASE [2]: 69.33 u/L
BLOOD UREA NITROGEN [2]: 16 mg/dL
CARBON DIOXIDE [2]: 40 mmol/L
CHLORIDE [2]: 105.67 MEQ/L
CHOLESTEROL [2]: 70.33 mg/dL
CREATINE PHOSPHOKINASE [2]: 144.67 u/L
CREATININE [2]: 0.3 mg/dL
GLUCOSE [2]: 177.67 mg/dL
LIPASE [2]: 16.33 u/L
PHOSPHORUS [2]: 10.83 mg/dL
POTASSIUM [2]: 5.77 MEQ/L
SODIUM [2]: 143.33 MEQ/L
TOTAL BILIRUBIN [2]: 0.33 mg/dL
TOTAL PROTEIN [2]: 6.37 G/DL
URIC ACID [2]: 0.17 mg/dL
ABSOLUTE BASOPHIL [3]: 110 cells/µL
ABSOLUTE EOSINOPHIL [3]: 210 cells/µL
ABSOLUTE LYMPHOCYTE [3]: 7080 cells/µL
ABSOLUTE MONOCYTE [3]: 140 cells/µL
BASOPHIL [3]: 1.17%
EOSINOPHIL [3]: 2.47%
ERYTHROCYTE COUNT [3]: 6.67 x10E6/uL
HEMATOCRIT [3]: 42.37%
HEMOGLOBIN [3]: 13.97 G/DL
LEUKOCYTE COUNT [3]: 8.7 x10E3/uL
LYMPHOCYTE [3]: 80.87%
MEAN CORPUSCULAR HEMOGLOBIN [3]: 20.97 pg
MEAN CORPUSCULAR HEMOGLOBIN CONCENTRATION [3]: 33 G/DL
MEAN CORPUSCULAR VOLUME [3]: 63.57 fL
MONOCYTE [3]: 1.7%
NEUTROPHIL [3]: 13.37%
PLATELET COUNT [3]: 1161.67 x10E3/uL
ALANINE AMINOTRANSFERASE [3]: 34 u/L
ALBUMIN [3]: 3.9 G/DL
ALKALINE PHOSPHATASE [3]: 354 u/L
ASPARTATE AMINOTRANSFERASE [3]: 68 u/L
BLOOD UREA NITROGEN [3]: 16.67 mg/dL
CARBON DIOXIDE [3]: 36 mmol/L
CHLORIDE [3]: 104 MEQ/L
CHOLESTEROL [3]: 67.67 mg/dL
CREATINE PHOSPHOKINASE [3]: 219 u/L
CREATININE [3]: 0.4 mg/dL
GLUCOSE [3]: 175 mg/dL
LIPASE [3]: 11 u/L
PHOSPHORUS [3]: 12.2 mg/dL
POTASSIUM [3]: 6.47 MEQ/L
SODIUM [3]: 142.67 MEQ/L
TOTAL BILIRUBIN [3]: 0.37 mg/dL
TOTAL PROTEIN [3]: 6.43 G/DL
URIC ACID [3]: 1.17 mg/dL
ABSOLUTE BASOPHIL [4]: 75 cells/µL
ABSOLUTE EOSINOPHIL [4]: 40 cells/µL
ABSOLUTE LYMPHOCYTE [4]: 7990 cells/µL
ABSOLUTE MONOCYTE [4]: 140 cells/µL
BASOPHIL [4]: 0.9%
EOSINOPHIL [4]: 0.5%
ERYTHROCYTE COUNT [4]: 6.82 x10E6/uL
HEMATOCRIT [4]: 42.9%
HEMOGLOBIN [4]: 13.75 G/DL
LEUKOCYTE COUNT [4]: 9.39 x10E3/uL
LYMPHOCYTE [4]: 84.25%
MEAN CORPUSCULAR HEMOGLOBIN [4]: 20.2 pg
MEAN CORPUSCULAR HEMOGLOBIN CONCENTRATION [4]: 32.15 G/DL
MEAN CORPUSCULAR VOLUME [4]: 62.9 fL
MONOCYTE [4]: 1.5%
NEUTROPHIL [4]: 12.5%
PLATELET COUNT [4]: 1293.5 x10E3/uL
ALANINE AMINOTRANSFERASE [4]: 27.67 u/L
ALBUMIN [4]: 3.93 G/DL
ALKALINE PHOSPHATASE [4]: 361.67 u/L
ASPARTATE AMINOTRANSFERASE [4]: 66 u/L
BLOOD UREA NITROGEN [4]: 14.67 mg/dL
CARBON DIOXIDE [4]: 35 mmol/L
CHLORIDE [4]: 106.67 MEQ/L
CHOLESTEROL [4]: 68.67 mg/dL
CREATINE PHOSPHOKINASE [4]: 274.67 u/L
CREATININE [4]: 0.4 mg/dL
GLUCOSE [4]: 192.33 mg/dL
LIPASE [4]: 9 u/L
PHOSPHORUS [4]: 11.87 mg/dL
POTASSIUM [4]: 6.67 MEQ/L
SODIUM [4]: 146 MEQ/L
TOTAL BILIRUBIN [4]: 0.37 mg/dL
TOTAL PROTEIN [4]: 6.33 G/DL
URIC ACID [4]: 1.37 mg/dL
ABSOLUTE BASOPHIL [5]: 120 cells/µL
ABSOLUTE EOSINOPHIL [5]: 74 cells/µL
ABSOLUTE LYMPHOCYTE [5]: 8830 cells/µL
ABSOLUTE MONOCYTE [5]: 250 cells/µL
BASOPHIL [5]: 1.1%
EOSINOPHIL [5]: 0.66%
ERYTHROCYTE COUNT [5]: 7.41 x10E6/uL
HEMATOCRIT [5]: 45.06%
HEMOGLOBIN [5]: 15.1 G/DL
LEUKOCYTE COUNT [5]: 11 x10E3/uL
LYMPHOCYTE [5]: 80.4%
MEAN CORPUSCULAR HEMOGLOBIN [5]: 20.36 pg
MEAN CORPUSCULAR HEMOGLOBIN CONCENTRATION [5]: 33.46 G/DL
MEAN CORPUSCULAR VOLUME [5]: 60.78 fL
MONOCYTE [5]: 2%
NEUTROPHIL [5]: 15.02%
PLATELET COUNT [5]: 1090.8 x10E3/uL
ALANINE AMINOTRANSFERASE [5]: 31.8 u/L
ALBUMIN [5]: 3.88 G/DL
ALKALINE PHOSPHATASE [5]: 326.6 u/L
ASPARTATE AMINOTRANSFERASE [5]: 64.8 u/L
BLOOD UREA NITROGEN [5]: 16.6 mg/dL
CARBON DIOXIDE [5]: 42.4 mmol/L
CHLORIDE [5]: 106 MEQ/L
CHOLESTEROL [5]: 66.4 mg/dL
CREATINE PHOSPHOKINASE [5]: 203 u/L
CREATININE [5]: 0.4 mg/dL
GLUCOSE [5]: 167.6 mg/dL
LIPASE [5]: 12.4 u/L
PHOSPHORUS [5]: 9.42 mg/dL
POTASSIUM [5]: 6.3 MEQ/L
SODIUM [5]: 144.4 MEQ/L
TOTAL BILIRUBIN [5]: 0.4 mg/dL
TOTAL PROTEIN [5]: 6.36 G/DL
URIC ACID [5]: 0.04 mg/dL
